Key:
HT1080 tumors = assay: Human fibrosarcoma xenograft, total diameter (tumor + leg)
[1] = MTMD (Maximum Tolerated Multiple Dose) determination, iv weekly x 3; type: in vivo; conditions: mice; iv/Q7d × 3
From the text: (§1) Female CD-1 or Athymic Nude-Fox1 nu/nu mice (Envigo) were utilized for all experiments. […] Animals were acclimated for five days prior to being individually tattoo-identified. Animal protocols were reviewed and approved according to the regional Institutional Animal Care and Use Committees.
(§2) Mice were randomly allocated into experimental groups and intravenously administered, once for the MTD (Maximum Tolerated Dose) determination or one administration a week during three consecutive weeks, for the MTMD (Maximum Tolerated Multiple Dose) determination study. The animals were administered with white formulation or with compound dissolved in the experimental formulation at different concentrations. The volume administered was always […]. Once administered, animals were monitored for clinical signs of systemic toxicity, changes in body weight and mortality up to 14 days after the administration.

[2] = system: A549 cells (lung carcinoma, NSCLC); assay: cells; conditions: A549, SRB; for GI50: 72 hours treatment; for TGI: total cell growth inhibition; for TGI / CC50: 72 hours; for CC50: read-out: LC50, 50% net cell killing
From the text: (§3) The aim of this assay is to evaluate the in vitro cytostatic (ability to delay or arrest tumor cell growth) or cytotoxic (ability to kill tumor cells) activity of the samples being tested.
(§4) A colorimetric assay, using sulforhodamine B (SRB) reaction has been adapted to provide a quantitative measurement of cell growth and viability (following the technique described by Skehan et al. J. Natl. Cancer Inst. 1990, 82, 1107-1112). Another colorimetric assay based on 3-(4,5-Dimethylthiazol-2-yl)-2,5-diphenyltetrazolium bromide (MTT) reduction to a purple formazan has been also used to assess the antiproliferative activity (following the technique described by Mosmann et al. J. Immunol. Meth. 1983, 65, 55-63).
(§5) These forms of assays employ 96-well cell culture microplates following the standards of the American National Standards Institute and the Society for Laboratory Automation and Screening (ANSI SLAS 1-2004 (R2012) Oct. 12, 2011. All the cell lines used in this study were obtained from the American Type Culture Collection (ATCC) and derive from different types of human cancer.
(§6) A549, HT29, MDA-MB-231 and PSN1 cells were maintained in Dulbecco's Modified Eagle Medium (DMEM) while PC-3 and 22Rv1 cells were maintained in Roswell Park Memorial Institute Medium (RPMI). All cell lines were supplemented with 10% Fetal Bovine Serum (FBS), 2 mM L-glutamine, 100 U/mL penicillin, and 100 […] at 37° C., 5% CO2 and 98% humidity. For the experiments, cells were harvested from subconfluent cultures using trypsinization and resuspended in fresh medium before counting and plating.
(§7) A549, HT29, MDA-MB-231 and PSN1 cells were seeded in 96 well microtiter plates, at 5000 cells per well in aliquots of 150 μL, and allowed to attach to the plate surface for 18 hours (overnight) in drug free medium. After that, one control (untreated) plate of each cell line was fixed (as described below) and used for time zero reference value. Culture plates were then treated with test compounds (50 μL aliquots of 4× stock solutions in complete culture medium plus 4% DMSO) using ten ⅖ serial dilutions (concentrations ranging from 10 to 0.003 μg/mL) and triplicate cultures (1% final concentration in DMSO). After 72 hours treatment, the antitumor effect was measured by using the SRB methodology: Briefly, cells were washed twice with PBS, fixed for 15 min in 1% glutaraldehyde solution at room temperature, rinsed twice in PBS, and stained in 0.4% SRB solution for 30 min at room temperature. Cells were then rinsed several times with 1% acetic acid solution and air-dried at room temperature.
(§8) Effects on cell growth and survival were estimated by applying the NCI algorithm (Boyd M R and Paull K D. Drug Dev. Res. 1995, 34, 91-104). The values obtained in triplicate cultures were fitted by nonlinear regression to a four-parameters logistic curve by nonlinear regression analysis.

[3] = system: PSN1 cells (pancreas adenocarcinoma); assay: cells; conditions: PSN1, SRB; for GI50: 72 hours treatment; for TGI: total cell growth inhibition; for TGI / CC50: 72 hours; for CC50: read-out: LC50, 50% net cell killing
From the text: as §3, §4, §5, §6, §7, §8

[4] = system: MDA-MB-231 cells (breast adenocarcinoma); assay: cells; conditions: MDA-MB-231, SRB; for GI50: 72 hours treatment; for TGI: total cell growth inhibition; for TGI / CC50: 72 hours; for CC50: read-out: LC50, 50% net cell killing
From the text: as §3, §4, §5, §6, §7, §8

[5] = system: HT29 cells (colorectal adenocarcinoma); assay: cells; conditions: HT29, SRB; for GI50: 72 hours treatment; for TGI: total cell growth inhibition; for TGI / CC50: 72 hours; for CC50: read-out: LC50, 50% net cell killing
From the text: as §3, §4, §5, §6, §7, §8

[6] = MTD (Maximum Tolerated Dose) determination, single iv administration; type: in vivo; conditions: mice; iv/SD (single dose); monitored up to 14 days
From the text: as §1, §2

[7] = Day 0.0, iv Days 0, 7 and 14, compound C 3.0 mg/kg, 4-S […], 12-S […]
[8] = Day 2.0, iv Days 0, 7 and 14, compound C 3.0 mg/kg, 4-S […], 12-S […]
[9] = Day 5.0, iv Days 0, 7 and 14, compound C 3.0 mg/kg, 4-S […], 12-S […]
[10] = Day 7.0, iv Days 0, 7 and 14, compound C 3.0 mg/kg, 4-S […], 12-S […]
[11] = Day 9.0, iv Days 0, 7 and 14, compound C 3.0 mg/kg, 4-S […], 12-S […]
[12] = Day 12.0, iv Days 0, 7 and 14, compound C 3.0 mg/kg, 4-S […], 12-S […]
[13] = Day 14.0, iv Days 0, 7 and 14, compound C 3.0 mg/kg, 4-S […], 12-S […]
[14] = Day 16.0, iv Days 0, 7 and 14, compound C 3.0 mg/kg, 4-S […], 12-S […]
[15] = Day 19.0, iv Days 0, 7 and 14, compound C 3.0 mg/kg, 4-S […], 12-S […]
[16] = Day 21.0, iv Days 0, 7 and 14, compound C 3.0 mg/kg, 4-S […], 12-S […]
[17] = Day 23.0, iv Days 0, 7 and 14, compound C 3.0 mg/kg, 4-S […], 12-S […]

COc1c(C)cc2c(c1O)[C@@H]1[C@@H]3[C@@H]4SC[C@]5(N[C@H](C)Cc6c5[nH]c5ccccc65)C(=O)OC[C@@H](c5c6c(c(C)c(OC(C)=O)c54)OCO6)N3[C@@H](O)[C@H](C2)N1C [Compound C]
Total diameter (tumor + leg) (HT1080 tumors; Day 0): 7.5 mm
Total diameter (tumor + leg) (HT1080 tumors; [7]): 7.5 mm
Total diameter (tumor + leg) (HT1080 tumors; Day 2): 8.8 mm
Total diameter (tumor + leg) (HT1080 tumors; [8]): 8.8 mm
Total diameter (tumor + leg) (HT1080 tumors; Day 5): 9.0 mm
Total diameter (tumor + leg) (HT1080 tumors; [9]): 9.0 mm
Total diameter (tumor + leg) (HT1080 tumors; Day 7): 9.6 mm
Total diameter (tumor + leg) (HT1080 tumors; [10]): 9.6 mm
Total diameter (tumor + leg) (HT1080 tumors; Day 9): 10.2 mm
Total diameter (tumor + leg) (HT1080 tumors; [11]): 10.2 mm
Total diameter (tumor + leg) (HT1080 tumors; Day 12): 10.2 mm
Total diameter (tumor + leg) (HT1080 tumors; [12]): 10.2 mm
Total diameter (tumor + leg) (HT1080 tumors; Day 14): 11.2 mm
Total diameter (tumor + leg) (HT1080 tumors; [13]): 11.2 mm
Total diameter (tumor + leg) (HT1080 tumors; Day 16): 12.4 mm
Total diameter (tumor + leg) (HT1080 tumors; [14]): 12.4 mm
Total diameter (tumor + leg) (HT1080 tumors; Day 19): 13.3 mm
Total diameter (tumor + leg) (HT1080 tumors; [15]): 13.3 mm
Total diameter (tumor + leg) (HT1080 tumors; Day 21): 15.2 mm
Total diameter (tumor + leg) (HT1080 tumors; [16]): 15.2 mm
Total diameter (tumor + leg) (HT1080 tumors; Day 23): 18.0 mm
Total diameter (tumor + leg) (HT1080 tumors; [17]): 18.0 mm
MTMD [1]: 3.0 mg/kg
GI50 [2]: 27.3 nM
TGI [2]: 6.63E−08 Molar
CC50 [2]: > 130 nM
GI50 [3]: 36.4 nM
TGI [3]: 4.42E−08 Molar
CC50 [3]: 65 nM
GI50 [4]: 26 nM
TGI [4]: 5.46E−08 Molar
CC50 [4]: > 130 nM
GI50 [5]: 20.8 nM
TGI [5]: 2.34E−08 Molar
CC50 [5]: > 130 nM

COc1c(C)cc2c(c1O)[C@@H]1[C@@H]3[C@@H]4SC[C@]5(N[C@@H](C)Cc6c5[nH]c5ccccc65)C(=O)OC[C@@H](c5c6c(c(C)c(OC(C)=O)c54)OCO6)N3[C@@H](O)[C@H](C2)N1C [Compound D]
Total diameter (tumor + leg) (HT1080 tumors; Day 0): 7.5 mm
Total diameter (tumor + leg) (HT1080 tumors; Day 0, iv Days 0, 7 and 14, PM01183 […], Compound D 0.5 mg/kg): 7.7 mm
Total diameter (tumor + leg) (HT1080 tumors; Day 2): 8.2 mm
Total diameter (tumor + leg) (HT1080 tumors; Day 2, iv Days 0, 7 and 14, PM01183 […], Compound D 0.5 mg/kg): 9.5 mm
Total diameter (tumor + leg) (HT1080 tumors; Day 5): 7.5 mm
Total diameter (tumor + leg) (HT1080 tumors; Day 5, iv Days 0, 7 and 14, PM01183 […], Compound D 0.5 mg/kg): 8.8 mm
Total diameter (tumor + leg) (HT1080 tumors; Day 7): 7.4 mm
Total diameter (tumor + leg) (HT1080 tumors; Day 7, iv Days 0, 7 and 14, PM01183 […], Compound D 0.5 mg/kg): 8.7 mm
Total diameter (tumor + leg) (HT1080 tumors; Day 9): 8.1 mm
Total diameter (tumor + leg) (HT1080 tumors; Day 9, iv Days 0, 7 and 14, PM01183 […], Compound D 0.5 mg/kg): 9.4 mm
Total diameter (tumor + leg) (HT1080 tumors; Day 12): 7.9 mm
Total diameter (tumor + leg) (HT1080 tumors; Day 12, iv Days 0, 7 and 14, PM01183 […], Compound D 0.5 mg/kg): 9.4 mm
Total diameter (tumor + leg) (HT1080 tumors; Day 14): 7.7 mm
Total diameter (tumor + leg) (HT1080 tumors; Day 14, iv Days 0, 7 and 14, PM01183 […], Compound D 0.5 mg/kg): 10.1 mm
Total diameter (tumor + leg) (HT1080 tumors; Day 16): 8.8 mm
Total diameter (tumor + leg) (HT1080 tumors; Day 16, iv Days 0, 7 and 14, PM01183 […], Compound D 0.5 mg/kg): 10.9 mm
Total diameter (tumor + leg) (HT1080 tumors; Day 19): 10.2 mm
Total diameter (tumor + leg) (HT1080 tumors; Day 19, iv Days 0, 7 and 14, PM01183 […], Compound D 0.5 mg/kg): 11.2 mm
Total diameter (tumor + leg) (HT1080 tumors; Day 21): 11.2 mm
Total diameter (tumor + leg) (HT1080 tumors; Day 21, iv Days 0, 7 and 14, PM01183 […], Compound D 0.5 mg/kg): 12.1 mm
Total diameter (tumor + leg) (HT1080 tumors; Day 23): 12.2 mm
Total diameter (tumor + leg) (HT1080 tumors; Day 23, iv Days 0, 7 and 14, Compound D 0.5 mg/kg): 13.0 mm
Total diameter (tumor + leg) (HT1080 tumors; Day 26, iv Days 0, 7 and 14, Compound D 0.5 mg/kg): 15.0 mm
Total diameter (tumor + leg) (HT1080 tumors; Day 27): 13.2 mm
Total diameter (tumor + leg) (HT1080 tumors; Day 28, iv Days 0, 7 and 14, Compound D 0.5 mg/kg): 18.0 mm
Total diameter (tumor + leg) (HT1080 tumors; Day 30): 14.6 mm
Total diameter (tumor + leg) (HT1080 tumors; Day 33): 16.3 mm
Total diameter (tumor + leg) (HT1080 tumors; Day 35): 18.0 mm
MTMD [1]: 0.5 mg/kg
GI50 [2]: 12.5 nM
TGI [2]: 2.86E−08 Molar
CC50 [2]: > 130 nM
GI50 [3]: 20.8 nM
TGI [3]: 2.21E−08 Molar
CC50 [3]: 24.7 nM
GI50 [4]: 9.88 nM
TGI [4]: 1.95E−08 Molar
CC50 [4]: 53.3 nM
GI50 [5]: 10.3 nM
TGI [5]: 2.34E−08 Molar
CC50 [5]: > 130 nM

COc1c(C)cc2c(c1O)[C@@H]1[C@@H]3[C@@H]4SC[C@]5(N[C@H](CO)Cc6c5[nH]c5ccccc65)C(=O)OC[C@@H](c5c6c(c(C)c(OC(C)=O)c54)OCO6)N3[C@@H](O)[C@H](C2)N1C [Compound 4-S]
Total diameter (tumor + leg) (HT1080 tumors; [7]): 7.5 mm
Total diameter (tumor + leg) (HT1080 tumors; [8]): 7.7 mm
Total diameter (tumor + leg) (HT1080 tumors; [9]): 8.3 mm
Total diameter (tumor + leg) (HT1080 tumors; [10]): 8.8 mm
Total diameter (tumor + leg) (HT1080 tumors; [11]): 8.4 mm
Total diameter (tumor + leg) (HT1080 tumors; [12]): 8.4 mm
Total diameter (tumor + leg) (HT1080 tumors; [13]): 9.6 mm
Total diameter (tumor + leg) (HT1080 tumors; [14]): 10.0 mm
Total diameter (tumor + leg) (HT1080 tumors; [15]): 10.4 mm
Total diameter (tumor + leg) (HT1080 tumors; [16]): 12.1 mm
Total diameter (tumor + leg) (HT1080 tumors; [17]): 12.7 mm
MTD [6]: 1.0 mg/kg

Source: patent US12384800B2, “Antitumoral compounds” (priority 2017, dated 2025)
